Results from publication PMC11546719, “Immune Modulatory Profile of the Pateamines PatA and Des-Methyl Des-Amino PatA” (International Journal of Molecular Sciences, 2024).

How the values were obtained:
[1] = tested on: T cells; assay: Energy metabolism (Seahorse OCR/ECAR) in T cells; assay type: cell-based, human; conditions: 5 days, PatA, DMDA 0.25-0.5 nM, silvestrol 5 nM
Protocol: The determination of the energy metabolism was performed as described previously. Briefly, for the analysis of the extracellular acidification rate (ECAR) and the oxygen consumption rate (OCR) for human B cells, Tcells, M1 MdMs and M2 MdMs, the Seahorse XFe96 FluxPak (Agilent, Waldbronn, Germany) was used as recommended by the manufacturer. MdMs were polarized to M1 or M2 MdMs in the presence of PatA (0.5, 2.5, 5 nM), DMDA (0.5, 2.5, 5 nM) or vehicle (DMSO) for 48 h or 24 h, respectively. T cells were activated in the presence of PatA (0.25, 0.5 nM), DMDA (0.25, 0.5 nM), silvestrol or DMSO. B cells were activated in the presence of PatA (0.25, 0.5 nM), DMDA (0.25, 0.5 nM), silvestrol (5 nM) or rapamycin (10 ng/mL positive control). Cells were washed with Seahorse XF RPMI medium pH 7.4 (Agilent, Waldbronn, Germany) and OCR and ECAR were measured as octuplicates for a period of 160 min using the Seahorse XFe96 Analyzer (Agilent, Waldbronn, Germany) and analyzed by Wave Software 2.6.3.8 (Agilent, Waldbronn, Germany). The relative values were calculated by relating the OCR or ECAR values obtained after 50 min to the values of the vehicle control (not stimulated).

[2] = tested on: Salmonella typhimurium strain TA98; assay: Ames MPF test, strain TA98; assay type: cell-based; conditions: TA98, with and without S9, 10-250 nM
Protocol: The Ames MPF 98/100 test (Xenometrix, Allschwil, Switzerland) was performed as recommended by the supplier and recently published. Briefly, two bacteria strains incapable of producing histidine (Salmonella typhimurium strains TA98 and TA100) were used. Liver homogenate S9 was applied to simulate the metabolic conversions of PatA and DMDA. After exposure to increasing concentrations of PatA (0, 10, 50, 250 nM), DMDA (0, 10, 50, 250 nM) or with positive controls (2 μg/mL for 2-NF (TA98), 2.5 μg/mL for 4-NQO (TA100), 63 μg/mL (TA100 with SF9) and 25 µg/mL (TA98 with SF9) for 2-AA), the cultures were diluted in pH indicator medium lacking histidine and incubated for two days. Cells that had undergone reversion to amino acid prototrophy grew into colonies and bacterial metabolism reduced the pH of the medium, changing the color of that well. Revertant colony numbers of each well were counted and related to the negative control (DMSO). The experiment was conducted once in triplicate. The Ames MPF calculation sheet provided by Xenometrix was used for data analysis. Fold induction over the baseline was calculated as the ratio of the mean number of positive wells to the baseline. The baseline was obtained by adding one standard deviation to the mean number of positive wells of the solvent control. Compounds with mutagenic potential were characterized by revertant numbers above the baseline.

[3] = tested on: TK6 cells; assay: Micronuclei assay; assay type: cell-based, human; conditions: 4 h incubation then 44 h
Protocol: The In-Vitro Micronuclei Plus assay (Becton Dickinson, Heidelberg, Germany) was performed as described by the supplier. Briefly, 2 × 10^4 TK6 cells were incubated with increasing concentrations of PatA, DMDA and silvestrol for 4 h. The cells were washed with PBS and incubated in fresh medium (without test substance) for 44 h. The cells were centrifuged (300× g) for 5 min, the […] and placed on ice for 20 min. Then, 50 µL of Complete Nucleic Acid Dye A Solution was added. The plate was placed on ice and exposed to visible light for 30 min. The Nucleic Acid Dye A solution was removed and the cells were washed with 0.15 mL of cold 1x Buffer Solution. An amount of 100 µL Complete Lysis Solution 1 was added, followed by gently mixing of the plate for 5 s and incubation of 1 h in the dark at 37 °C. Then, 100 µL Complete Lysis Solution 2 was added and incubated for 30 min in the dark at room temperature. The cells were analyzed via flow cytometry with the MACSQuant 10 (Miltenyi GmbH, Bergisch Gladbach, Germany).

## CC(/C=C/C(C)=C/[C@@H]1Cc2nc(cs2)CCCCC(=O)O[C@@H](C)C/C(C)=C/C=C\C(=O)O1)=C\CN(C)C [DMDA, des-methyl des-amino pateamine A]
[1]
  Energy metabolism: glycolysis (ECAR) and oxidative phosphorylation (OCR): did not alter the energy metabolism
[2]
  Mutagenic potential (Ames test): negative in all Ames mutagenic assays
[3]
  Genotoxic potential: micronuclei (clastogenic) and hypodiploid cells (aneugenic): induced neither clastogenic nor aneugenic effects

## CC(/C=C/C(C)=C/[C@@H]1Cc2nc(cs2)[C@@H](C)C[C@@H](N)CC(=O)O[C@@H](C)C/C(C)=C/C=C\C(=O)O1)=C\CN(C)C [PatA, pateamine A]
[1]
  Energy metabolism: glycolysis (ECAR) and oxidative phosphorylation (OCR): did not alter the energy metabolism
[2]
  Mutagenic potential (Ames test): negative in all Ames mutagenic assays
[3]; 10 nM
  Genotoxic potential: micronuclei (clastogenic) and hypodiploid cells (aneugenic): induced clastogenic effects
